Values quoted from earlier work as cited in patent US20030099708A1, “Printing or dispensing a suspension such as three-dimensional printing of dosage forms” (Therics, Inc, priority 2001, published 2003).

Settings: statement in words, no test described

CC[C@@]1(O)C(=O)OCc2c1cc1n(c2=O)Cc2cc3ccccc3nc2-1 [camptothecin]
solubility in water: substantially insoluble
